Results from patent US9556460B2, “Method for the production of 3-hydroxy-3-methylbutyric acid from acetone and an activated acetyl compound” (Scientist of Fortune, S.A., priority 2009, dated 2017).

What was measured:
Format in all cases: biochemical
Conditions in all cases: acetyl-CoA constant 10 mM, 40 mM Tris-HCl pH 8, 2 mM MgCl2, 37° C., 40 h
[1] = molecular target: T1, Gallus gallus (Chicken) HMG-CoA synthase, cytoplasmic, P23228, SEQ ID NO: 7 (Gallus gallus, UniProt P23228); assay: Kinetic parameters for the enzymatic reaction between acetyl-CoA and acetone, HMG-CoA synthase of Gallus gallus
T1 construct: made in house; host or cells: E. coli BL21
T1 sequence (P23228 1-522): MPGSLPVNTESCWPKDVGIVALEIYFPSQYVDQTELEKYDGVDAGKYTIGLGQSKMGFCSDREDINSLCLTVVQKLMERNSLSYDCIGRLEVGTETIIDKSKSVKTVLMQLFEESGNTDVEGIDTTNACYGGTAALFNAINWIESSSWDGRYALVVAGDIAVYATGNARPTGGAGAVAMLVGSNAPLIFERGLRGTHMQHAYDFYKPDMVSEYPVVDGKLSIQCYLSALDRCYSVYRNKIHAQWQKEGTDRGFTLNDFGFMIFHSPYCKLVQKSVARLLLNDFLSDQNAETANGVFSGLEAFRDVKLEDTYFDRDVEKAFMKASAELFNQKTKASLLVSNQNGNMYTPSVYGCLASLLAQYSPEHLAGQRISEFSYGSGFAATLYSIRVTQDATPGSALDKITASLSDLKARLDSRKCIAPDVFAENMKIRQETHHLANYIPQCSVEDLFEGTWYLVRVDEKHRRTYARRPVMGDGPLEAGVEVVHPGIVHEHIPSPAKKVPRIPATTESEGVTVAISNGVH
Description: (§1) Kinetic Parameters for the Enzymatic Reaction Between Acetyl-CoA and Acetone in the Case of HMG Synthases
(§2) The kinetic parameters were measured using a variable concentration of acetone and a constant concentration of acetyl-CoA (10 mM) in following conditions:
(§3) The final pH was adjusted to 8.
(§4) The reaction was initiated by the addition of 3 mg of purified enzyme to the 1 ml reaction mixture. The mixture was then incubated without shaking at 37° C. for 40 h.
(§5) Analysis of 3-hydroxy-3-methylbutyrate Production
(§6) Thermochemical conditions leading to the decomposition of 3-hydroxy-3-methylbutyrate into isobutene were applied (Pressman et al., JACS, 1940, 2069-2080): the pH of the reaction mixtures was first adjusted to pH 4 using 6N HCl and the samples were then transferred into gas chromatography vials (Interchim). The vials were sealed and incubated at 110° C. for 4 hours, thus leading to the decomposition of 3-hydroxy-3-methylbutyrate into isobutene.
(§7) The calibration curve was prepared in the same conditions using commercial 3-hydroxy-3-methylbutyrate.
(§8) One milliliter of headspace gas was collected and injected into a HP5890 gas chromatograph (HP) equipped with a FID detector and a CP SilicaPlot® column (chromatography column; Varian). Commercial isobutene was used as reference. From the isobutene signal the amount of 3-hydroxy-3-methylbutyrate initially present in the sample was calculated.

[2] = molecular target: Staphylococcus epidermidis HMG-CoA synthase, Q8CN06, SEQ ID NO: 11 (Staphylococcus epidermidis, UniProt Q9FD76); assay: Kinetic parameters for the enzymatic reaction between acetyl-CoA and acetone, HMG-CoA synthase of Staphylococcus epidermidis
Description: as §1, §2, §3, §4, §5, §6, §7, §8

[3] = molecular target: T2, Schizosaccharomyces pombe (Fission yeast) HMG-CoA synthase, cytoplasmic, P54874, SEQ ID NO: 2 (Schizosaccharomyces pombe, UniProt P54874); assay: Kinetic parameters for the enzymatic reaction between acetyl-CoA and acetone, HMG-CoA synthase of Schizosaccharomyces pombe
T2 construct: made in house; host or cells: E. coli BL21
T2 sequence (P54874 1-447): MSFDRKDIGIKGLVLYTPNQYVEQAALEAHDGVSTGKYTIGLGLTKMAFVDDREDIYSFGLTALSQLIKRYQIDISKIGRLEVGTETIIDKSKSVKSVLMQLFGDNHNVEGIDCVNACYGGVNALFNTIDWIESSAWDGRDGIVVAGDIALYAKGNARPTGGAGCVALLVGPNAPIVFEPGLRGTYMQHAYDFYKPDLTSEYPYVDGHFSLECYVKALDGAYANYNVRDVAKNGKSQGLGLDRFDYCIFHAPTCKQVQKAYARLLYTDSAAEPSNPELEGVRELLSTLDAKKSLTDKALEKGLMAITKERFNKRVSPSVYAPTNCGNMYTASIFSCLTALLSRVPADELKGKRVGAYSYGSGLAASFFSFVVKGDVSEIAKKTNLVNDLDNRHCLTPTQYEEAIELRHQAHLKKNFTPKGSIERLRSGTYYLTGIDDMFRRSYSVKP
Description: as §1, §2, §3, §4, §5, §6, §7, §8

Sequence of Staphylococcus epidermidis HMG-CoA synthase, Q8CN06, SEQ ID NO: 11 (Q9FD76 entry or part of it, one chain of several): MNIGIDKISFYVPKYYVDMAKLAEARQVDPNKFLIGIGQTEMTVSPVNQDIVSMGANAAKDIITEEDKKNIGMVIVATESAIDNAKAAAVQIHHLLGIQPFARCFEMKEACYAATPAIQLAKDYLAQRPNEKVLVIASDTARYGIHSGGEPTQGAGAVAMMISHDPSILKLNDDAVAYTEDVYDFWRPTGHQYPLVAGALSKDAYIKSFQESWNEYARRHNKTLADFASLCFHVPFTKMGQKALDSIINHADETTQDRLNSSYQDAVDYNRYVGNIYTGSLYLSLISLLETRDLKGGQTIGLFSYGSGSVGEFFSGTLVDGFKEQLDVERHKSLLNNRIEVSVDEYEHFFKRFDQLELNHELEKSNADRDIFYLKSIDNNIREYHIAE

## CC(C)=O [acetone]
[1]; 0-1 M acetone
  kcat: 5 × 10^−4, sec^−1
[1]; acetone
  kcat/KM: 2 × 10^−6, mM^−1 × sec−^1
[2]; 0-1 M acetone
  kcat: 0.6 × 10^−4, sec^−1
[2]; acetone
  kcat/KM: 0.3 × 10^−6, mM^−1 × sec−^1
[3]; 0-1 M acetone
  kcat: 0.2 × 10^−4, sec^−1
[3]; acetone
  kcat/KM: 0.1 × 10^−6, mM^−1 × sec−^1
